In patent US20240190916A1, “NOVEL PEPTIDE” (HYSENSBIO, priority 2022, published 2024):

Experiments:
Assay type in all cases: cell-based
DMP1 gene = test: DMP1 mRNA level by real-time PCR in human-derived mesenchymal stem cells; details: compared to untreated control
Description: (§1) It was cultured at 37° C. in humid air containing 5% CO2 and used for the experiment. Human mesenchymal stem cells (hBMSCs) were purchased from Lonza (LONZA, Switzerland) and used. hBMSCs were cultured in a-MEM (Invitrogen) medium supplemented with 10% heat-inactivated bovine serum.
(§2) Total RNA of human dental pulp cells and mesenchymal stem cells was isolated using a TRIzol reagent. cDNA was synthesized using 2 μg of total RNA, 1 μl of reverse transcriptase, and 0.5 μg of oligo (dT). The synthesized cDNA was used for real-time polymerase chain reaction. The real-time polymerase chain reaction was performed in ABI PRISM 7500 sequence detection system (Applied Biosystems) using SYBR GREEN PCR Master Mix (Takara, Japan). The real-time polymerase chain reaction was performed at 94° C., 1 min; 95° C., 15 sec-60° C., 34 sec was performed under the condition of repeating 40 cycles. An analysis of the results was evaluated using a comparative cycle threshold (CT) method, and primer base sequences are listed in Table 9.
(§3) BSP and DMP1 genes are used as markers for differentiation of osteoblasts and cementoblasts, and are known as important genes for calcification of a bone and cementum. The effects of each group of peptides on BSP and DMP1 mRNA expression were confirmed by a real-time PCR (Tables 11 and 12).

DSPP gene = test: DSPP mRNA level by real-time PCR in human dental pulp cells; details: peptide 10 ug/ml, compared to untreated control
Description: Human pulp tissue cells were isolated from wisdom teeth of 10 adults (18-22 years old) at Seoul National University Dental Hospital. Specifically, all experiments were performed with the patient's consent after approval from the hospital's Institutional Review Board, and wisdom teeth are cut according to a method of Jung H S et al (J Mol Histol. (2011)), exposing the pulp and isolating the pulp with forceps. The isolated pulp was minced on both sides, placed in a 60 mm dish, covered with a cover slip, and then cultured in Dulbecco's Modified Eagle medium. It is known that human dental pulp cells can differentiate into odontoblasts, osteoblasts, cementoblasts and periodontal ligament cells under various conditions (Tissue Eng Part A. 2014 April; 20(7-8): 1342-51).
as §2
The effect of each group of peptides on DSPP mRNA expression was confirmed by real-time PCR (Table 10).

BSP gene = test: BSP mRNA level by real-time PCR in human-derived mesenchymal stem cells; details: compared to untreated control
Description: as §1, §2, §3

| Sequence | mRNA level of DMP1 gene, DMP1 gene expression, Average (DMP1 gene) | mRNA level of DSPP gene, Average (DSPP gene) | mRNA level of BSP gene, BSP gene expression, Average (BSP gene) |
| --- | --- | --- | --- |
| KYAKKKKNYK [SEQ ID NO: 33] | 7.709 fold | 1.813 fold | 2.092 fold |
| KYAKKKKSYK [SEQ ID NO: 41] | 7.727 fold | 1.897 fold | 1.762 fold |
| KYAKKKRNYK [SEQ ID NO: 34] | 7.031 fold | 2.361 fold | 2.136 fold |
| KYAKKKRSYK [SEQ ID NO: 42] | 7.367 fold | 1.811 fold | 1.882 fold |
| KYAKKRKNYK [SEQ ID NO: 35] | 7.527 fold | 1.572 fold | 2.372 fold |
| KYAKKRKSYK [SEQ ID NO: 43] | 6.791 fold | 1.620 fold | 2.011 fold |
| KYAKKRRNYK [SEQ ID NO: 37] | 7.032 fold | 1.67 fold | 1.999 fold |
| KYAKKRRSYK [SEQ ID NO: 45] | 7.309 fold | 2.125 fold | 1.878 fold |
| KYAKRKKNYK [SEQ ID NO: 36] | 6.999 fold | 1.702 fold | 2.207 fold |
| KYAKRKKSYK [SEQ ID NO: 44] | 7.663 fold | 2.121 fold | 1.699 fold |
| KYAKRKRNYK [SEQ ID NO: 40] | 7.635 fold | 2.121 fold | 2.102 fold |
| KYAKRKRSYK [SEQ ID NO: 48] | 6.757 fold | 2.516 fold | 1.773 fold |
| KYAKRRKNYK [SEQ ID NO: 38] | 7.777 fold | 1.705 fold | 2.507 fold |
| KYAKRRKSYK [SEQ ID NO: 46] | 7.294 fold | 1.836 fold | 1.863 fold |
| KYAKRRRNYK [SEQ ID NO: 39] | 6.989 fold | 2.015 fold | 2.293 fold |
| KYAKRRRSYK [SEQ ID NO: 47] | 7.107 fold | 1.620 fold | 2.063 fold |

| Sequence | mRNA level of DMP1 gene, DMP1 gene expression, Average (DMP1 gene) | mRNA level of DSPP gene, Average (DSPP gene) | mRNA level of BSP gene, BSP gene expression, Average (BSP gene) |
| --- | --- | --- | --- |
| KYARKKKNYK [SEQ ID NO: 49] | 6.789 fold | 1.798 fold | 1.971 fold |
| KYARKKKSYK [SEQ ID NO: 57] | 6.059 fold | 1.886 fold | 1.679 fold |
| KYARKKRNYK [SEQ ID NO: 50] | 6.109 fold | 1.661 fold | 1.901 fold |
| KYARKKRSYK [SEQ ID NO: 58] | 5.999 fold | 1.811 fold | 1.811 fold |
| KYARKRKNYK [SEQ ID NO: 51] | 5.272 fold | 2.572 fold | 1.899 fold |
| KYARKRKSYK [SEQ ID NO: 59] | 5.510 fold | 2.120 fold | 1.629 fold |
| KYARKRRNYK [SEQ ID NO: 53] | 6.483 fold | 2.037 fold | 2.036 fold |
| KYARKRRSYK [SEQ ID NO: 61] | 5.787 fold | 1.525 fold | 1.832 fold |
| KYARRKKNYK [SEQ ID NO: 52] | 5.991 fold | 2.102 fold | 1.999 fold |
| KYARRKKSYK [SEQ ID NO: 60] | 5.078 fold | 2.195 fold | 1.991 fold |
| KYARRKRNYK [SEQ ID NO: 56] | 5.798 fold | 2.021 fold | 2.016 fold |
| KYARRKRSYK [SEQ ID NO: 64] | 6.123 fold | 1.606 fold | 2.021 fold |
| KYARRRKNYK [SEQ ID NO: 54] | 6.531 fold | 2.005 fold | 2.1 fold |
| KYARRRKSYK [SEQ ID NO: 62] | 5.333 fold | 1.836 fold | 1.769 fold |
| KYARRRRNYK [SEQ ID NO: 55] | 6.111 fold | 1.921 fold | 1.773 fold |
| KYARRRRSYK [SEQ ID NO: 63] | 5.727 fold | 2.120 fold | 2.237 fold |
